Earlier results as cited in patent publication US7834030B2, “Phenyl-[1,2,4]-oxadiazol-5-one derivatives, pharmaceutical compositions and therapeutic use thereof” (Sanofi-Aventis, priority 2005, dated 2010).
Where two headings read alike, the source gives them in different places.

Assays:
[1] = diabetic animal model; cited from earlier work
[2] = obese, insulin resistant rhesus monkeys; cited from earlier work
[3] = healthy volunteers, two weeks clinical trials; cited from earlier work
[4] = rhesus monkeys; cited from earlier work
[5] = cynomolgus monkeys; cited from earlier work

## CCCc1c(OCCCOc2ccc(OCC(=O)O)cc2)ccc(C(C)=O)c1O [Example L-165041]
[1]
  plasma cholesterol: raises plasma cholesterol

## Cc1cc(SCc2sc(-c3ccc(C(F)(F)F)cc3)nc2C)ccc1OCC(=O)O [GW501516]
[2]
  HDL-cholesterol: raises
  insulin levels: decreases
  plasma LDL-cholesterol: decreases
  triglycerides: decreases

## CCCc1c(OCCCSc2nnc(SCC(=O)O)s2)ccc(C(C)=O)c1O [YM-16638]
[3]
  plasma lipids: acts in a similar manner
[4]
  plasma lipids: significantly lowers
[5]
  plasma lipids: significantly lowers
